Source: PMC10467532, “Design, synthesis, and biological evaluation of thiazole/thiadiazole carboxamide scaffold-based derivatives as potential c-Met kinase inhibitors for cancer treatment” (Journal of Enzyme Inhibition and Medicinal Chemistry, 2023)

Columns and labels:
[1] = system: c-Met phosphorylation in MKN-45 cells; test: Western blotting analysis of c-Met phosphorylation; type: cell-based, human; settings: 24 h, 0, 2.5, 5.0, and 10.0 μM
Experimental: To obtain further insight into the mechanism of 51am induced apoptosis, western blot assay was carried out to investigate the effect of 51am on the phosphorylation of c-Met in living cells. MKN-45 cells were treated with 51am for 24 h in a series of concentrations (0, 2.5, 5.0, and 10.0 μM) using DMSO as the negative control, and the level of GAPDH served as the loading control.
MKN-45 cells were incubated with the test compound at various concentrations for 24 h. After incubation, cells were harvested in PBS solution containing proteinase inhibitors and phosphatase inhibitors, and then sonicated. Whole cell lysates were separated by sodium dodecyl sulphate-polyacrylamide gel electrophoresis (SDS-PAGE) and transferred to nitrocellulose membrane (Beyotime Biotechnology, Shanghai, China). The membrane was incubated with primary antibody followed by labelling with horseradish peroxidase (HRP)-conjugated secondary antibody (Beyotime Biotechnology, Shanghai, China). The blots were developed with enhanced chemiluminescence and visualised by an LAS4000 imager (Fuji Photo Film, Minato City, Japan).

Flt-4 = target: T1, Flt-4 (Homo sapiens, UniProt P35916); test: Tyrosine kinase HTRF assay, Flt-4; type: biochemical
T1 construct: purchased Invitrogen (Waltham, MA)
Experimental: (§1) On the other hand, comprehensive understanding the off-target kinase inhibition is critical for any kinase inhibitors, particularly to help explain the correlations between efficacy and potential side effects. […] The reactions were quenched by addition 10 µL mixed detection solution. […] The inhibition rate (%) was calculated using the following equation: inhibition rate = [(activity of enzyme with tested compound – min)/(max – min)] × 100 (max: the enzyme activity in the presence of enzyme, substrates and cofactors; min: the enzyme activity in the presence of substrates, cofactors and in the absence of enzyme). IC50 value was calculated from the inhibition curve using GraphPad Prism 5.0 software (La Jolla, CA).

VEGFR-2 = target: T2, VEGFR-2 (Homo sapiens, UniProt P35968); test: Tyrosine kinase HTRF assay, VEGFR-2; type: biochemical
T2 construct: purchased Invitrogen (Waltham, MA)
Experimental: as §1

c-Met Y1235D = target: T3, c-Met Y1235D (Homo sapiens, UniProt P08581, Y1235D); test: Tyrosine kinase HTRF assay, c-Met Y1235D; type: biochemical
T3 construct: purchased Invitrogen (Waltham, MA)
Experimental: as §1

c-Met H1094R = target: T4, c-Met H1094R (Homo sapiens, UniProt P08581, H1094R); test: Tyrosine kinase HTRF assay, c-Met H1094R; type: biochemical
T4 construct: purchased Invitrogen (Waltham, MA)
T4 sequence (P08581 25-1390 H1094R): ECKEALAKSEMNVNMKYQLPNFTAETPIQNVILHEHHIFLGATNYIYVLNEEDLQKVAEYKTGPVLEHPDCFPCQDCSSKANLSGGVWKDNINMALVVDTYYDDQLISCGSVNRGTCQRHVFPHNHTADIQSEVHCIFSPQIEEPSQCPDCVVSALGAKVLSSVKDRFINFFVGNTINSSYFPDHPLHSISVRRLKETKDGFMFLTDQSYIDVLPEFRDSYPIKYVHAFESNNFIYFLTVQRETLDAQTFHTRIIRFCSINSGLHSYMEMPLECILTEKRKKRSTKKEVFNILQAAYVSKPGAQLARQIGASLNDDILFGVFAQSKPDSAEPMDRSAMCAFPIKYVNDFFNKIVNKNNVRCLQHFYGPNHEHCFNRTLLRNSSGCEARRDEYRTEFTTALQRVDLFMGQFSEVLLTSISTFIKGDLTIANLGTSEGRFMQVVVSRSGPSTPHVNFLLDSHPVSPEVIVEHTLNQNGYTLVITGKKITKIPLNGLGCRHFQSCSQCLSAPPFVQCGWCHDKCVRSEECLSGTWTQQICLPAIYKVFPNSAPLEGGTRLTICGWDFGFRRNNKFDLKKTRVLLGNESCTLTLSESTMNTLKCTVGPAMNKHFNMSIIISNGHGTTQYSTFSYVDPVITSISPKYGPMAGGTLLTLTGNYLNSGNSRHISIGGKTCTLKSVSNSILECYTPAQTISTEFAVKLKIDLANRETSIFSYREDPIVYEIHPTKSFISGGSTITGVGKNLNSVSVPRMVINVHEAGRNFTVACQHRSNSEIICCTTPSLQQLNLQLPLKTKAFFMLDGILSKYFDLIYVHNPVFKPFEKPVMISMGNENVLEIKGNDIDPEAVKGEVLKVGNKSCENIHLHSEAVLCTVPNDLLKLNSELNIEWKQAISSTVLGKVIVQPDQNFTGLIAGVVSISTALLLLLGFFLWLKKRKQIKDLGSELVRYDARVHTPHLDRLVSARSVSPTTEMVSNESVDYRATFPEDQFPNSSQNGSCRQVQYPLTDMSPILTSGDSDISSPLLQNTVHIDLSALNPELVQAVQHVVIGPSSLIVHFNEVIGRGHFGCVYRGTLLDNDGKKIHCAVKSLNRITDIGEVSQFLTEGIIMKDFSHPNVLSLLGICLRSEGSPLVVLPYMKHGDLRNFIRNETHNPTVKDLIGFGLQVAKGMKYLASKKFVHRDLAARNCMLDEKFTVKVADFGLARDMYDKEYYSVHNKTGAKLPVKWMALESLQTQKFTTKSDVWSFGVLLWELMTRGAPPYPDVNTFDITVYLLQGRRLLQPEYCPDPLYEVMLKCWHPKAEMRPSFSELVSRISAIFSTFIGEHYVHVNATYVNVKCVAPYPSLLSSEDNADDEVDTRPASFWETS
Experimental: as §1

[2] = Pharmacokinetic study in BALB/c mice; type: in vivo; settings: male, mouse, plasma
Experimental: Identification of drugs with an acceptable balance of potency, physical properties, and pharmacokinetics (PK) has always been a challenge that often hinders evaluation of the compounds in xenograft models and therapeutic use in clinical practice. Therefore, the PK profile of compound 51am was evaluated in BALB/c mice after intravenous (i.v.) injection and oral administration (p.o.) because of its excellent in vitro activity. […] Based on the good overall PK profile, 51am could be a potential candidate for cancer therapy.
The experimental procedures and the animal use and care protocols were approved by the Committee on Ethical Use of Animals of Shenzhen Second People’s Hospital. Each male BALB/c mice received a single compound 51am as a solution in PEG 400/water (70:30) by either oral route (10 mg/kg) or i.v. route (1.5 mg/kg). Blood samples were collected into the microcentrifuge tube containing heparin at time points 0 (prior to dosing) 5, 10, 20, 30, 60, 180, 360, 480, 600, 720, 1080, and 1440 min after dosing. The blood samples were centrifuged; the obtained plasma was separated and stored at –20 °C. All samples for 51am were measured by liquid chromatography–tandem mass spectrometry (LC/MS/MS).

c-kit = target: T5, c-kit (Homo sapiens, UniProt P10721); test: Tyrosine kinase HTRF assay, c-kit; type: biochemical
T5 construct: purchased Invitrogen (Waltham, MA)
T5 sequence (P10721 26-976): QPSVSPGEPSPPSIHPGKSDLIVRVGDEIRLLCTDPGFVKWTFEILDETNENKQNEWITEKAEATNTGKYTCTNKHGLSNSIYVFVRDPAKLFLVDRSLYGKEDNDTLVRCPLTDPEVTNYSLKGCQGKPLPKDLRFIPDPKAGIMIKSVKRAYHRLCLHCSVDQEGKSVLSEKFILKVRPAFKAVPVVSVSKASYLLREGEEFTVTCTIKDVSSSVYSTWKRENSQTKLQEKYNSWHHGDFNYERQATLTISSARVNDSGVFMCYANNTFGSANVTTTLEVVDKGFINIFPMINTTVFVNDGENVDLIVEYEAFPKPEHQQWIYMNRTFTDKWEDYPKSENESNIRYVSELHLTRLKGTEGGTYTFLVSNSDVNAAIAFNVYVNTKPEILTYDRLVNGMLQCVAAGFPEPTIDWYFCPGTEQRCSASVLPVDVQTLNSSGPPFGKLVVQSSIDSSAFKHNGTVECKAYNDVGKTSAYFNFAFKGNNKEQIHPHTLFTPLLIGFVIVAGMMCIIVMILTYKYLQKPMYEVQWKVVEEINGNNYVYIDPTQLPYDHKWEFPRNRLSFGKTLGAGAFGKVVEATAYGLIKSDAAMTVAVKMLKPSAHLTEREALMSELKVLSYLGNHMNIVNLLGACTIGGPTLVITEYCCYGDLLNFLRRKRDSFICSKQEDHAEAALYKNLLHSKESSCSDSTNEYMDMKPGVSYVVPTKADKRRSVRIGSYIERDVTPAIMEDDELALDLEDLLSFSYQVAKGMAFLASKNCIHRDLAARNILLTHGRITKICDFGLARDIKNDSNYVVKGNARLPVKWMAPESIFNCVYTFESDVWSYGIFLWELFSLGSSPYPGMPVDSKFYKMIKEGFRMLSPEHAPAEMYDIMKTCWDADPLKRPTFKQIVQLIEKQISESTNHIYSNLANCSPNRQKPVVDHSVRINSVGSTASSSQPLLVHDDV
Experimental: as §1

[3] = system: PDGFRα, PDGFRβ, VEGFR-2, and Flt-4; test: Kinase selectivity relative to c-Met; type: biochemical
Experimental: as §1

c-Met D1228H = target: T6, c-Met D1228H (Homo sapiens, UniProt P08581, D1228H); test: Tyrosine kinase HTRF assay, c-Met D1228H; type: biochemical
T6 construct: purchased Invitrogen (Waltham, MA)
Experimental: as §1

MKN-45 cells = test: Apoptosis by Annexin V/PI double staining, flow cytometry; settings: 24 h, control 6.02%
Experimental: Apoptosis was detected by an Annexin V/propidium iodide (PI) double staining kit (Beyotime Biotechnology, Shanghai, China). […] Cells were harvested by trypsinisation and washed with ice-cold PBS solution. Cells were labelled with annexin V and PI and incubated at room temperature for 30 min in the dark. The labelled cells were analysed by a FACScan flow cytometer (Becton Dickinson, Franklin Lakes, NJ).

c-Met = target: T7, c-Met (Homo sapiens, UniProt P08581); test: In vitro c-Met enzymatic assay (HTRF); type: biochemical; settings: HTRF assay; mean ± SD, triplicate; read-out: IC50 against c-Met
T7 construct: purchased Invitrogen (Waltham, MA)

MKN-45 = test: MTT antiproliferative assay, MKN-45; settings: Homo sapiens, MKN-45, 48 h, read-out: IC50 MKN-45
Experimental: (§2) MTT assay was used to determine the cytotoxic activity of target compounds against different cell lines. […] Then, the cells were treated with five doses of test compounds (pre-dissolved in DMSO), and 0.1% DMSO was used as a negative control. […] The results expressed as IC50 were the average of three determinations calculated by using the Bacus Laboratories Incorporated Slide Scanner (Bliss) software.

MDA-MB-231 = test: MTT antiproliferative assay, MDA-MB-231; settings: Homo sapiens, MDA-MB-231, 48 h, read-out: IC50 MDA-MB-231
Experimental: as §2

FHC = test: MTT cytotoxicity assay, normal FHC cells; settings: Homo sapiens, 48 h, read-out: IC50 FHC
Experimental: as §2

HUVEC = test: MTT cytotoxicity assay, normal HUVEC cells; settings: Homo sapiens, 48 h, read-out: IC50 HUVEC
Experimental: as §2

PDGFRα = target: T8, PDGFRα (Homo sapiens, UniProt P16234); test: Tyrosine kinase HTRF assay, PDGFRα; type: biochemical
T8 construct: purchased Invitrogen (Waltham, MA)
Experimental: as §1

A549 = test: MTT antiproliferative assay, A549; settings: Homo sapiens, A549, 48 h, read-out: IC50 A549
Experimental: as §2

PDGFRβ = target: T9, PDGFRβ (Homo sapiens, UniProt P09619); test: Tyrosine kinase HTRF assay, PDGFRβ; type: biochemical
T9 construct: purchased Invitrogen (Waltham, MA)
Experimental: as §1

Flt-3 = target: T10, Flt-3 (Homo sapiens, UniProt P36888); test: Tyrosine kinase HTRF assay, Flt-3; type: biochemical
T10 construct: purchased Invitrogen (Waltham, MA)
Experimental: as §1

HT-29 = test: MTT antiproliferative assay, HT-29; settings: Homo sapiens, HT-29, 48 h, read-out: IC50 HT-29
Experimental: as §2

c-Met Y1230H = target: T11, c-Met Y1230H (Homo sapiens, UniProt P08581, Y1230H); test: Tyrosine kinase HTRF assay, c-Met Y1230H; type: biochemical
T11 construct: purchased Invitrogen (Waltham, MA)
Experimental: as §1

c-Met M1250T = target: T12, c-Met M1250T (Homo sapiens, UniProt P08581, M1250T); test: Tyrosine kinase HTRF assay, c-Met M1250T; type: biochemical
T12 construct: purchased Invitrogen (Waltham, MA)
T12 sequence (P08581 25-1390 M1250T): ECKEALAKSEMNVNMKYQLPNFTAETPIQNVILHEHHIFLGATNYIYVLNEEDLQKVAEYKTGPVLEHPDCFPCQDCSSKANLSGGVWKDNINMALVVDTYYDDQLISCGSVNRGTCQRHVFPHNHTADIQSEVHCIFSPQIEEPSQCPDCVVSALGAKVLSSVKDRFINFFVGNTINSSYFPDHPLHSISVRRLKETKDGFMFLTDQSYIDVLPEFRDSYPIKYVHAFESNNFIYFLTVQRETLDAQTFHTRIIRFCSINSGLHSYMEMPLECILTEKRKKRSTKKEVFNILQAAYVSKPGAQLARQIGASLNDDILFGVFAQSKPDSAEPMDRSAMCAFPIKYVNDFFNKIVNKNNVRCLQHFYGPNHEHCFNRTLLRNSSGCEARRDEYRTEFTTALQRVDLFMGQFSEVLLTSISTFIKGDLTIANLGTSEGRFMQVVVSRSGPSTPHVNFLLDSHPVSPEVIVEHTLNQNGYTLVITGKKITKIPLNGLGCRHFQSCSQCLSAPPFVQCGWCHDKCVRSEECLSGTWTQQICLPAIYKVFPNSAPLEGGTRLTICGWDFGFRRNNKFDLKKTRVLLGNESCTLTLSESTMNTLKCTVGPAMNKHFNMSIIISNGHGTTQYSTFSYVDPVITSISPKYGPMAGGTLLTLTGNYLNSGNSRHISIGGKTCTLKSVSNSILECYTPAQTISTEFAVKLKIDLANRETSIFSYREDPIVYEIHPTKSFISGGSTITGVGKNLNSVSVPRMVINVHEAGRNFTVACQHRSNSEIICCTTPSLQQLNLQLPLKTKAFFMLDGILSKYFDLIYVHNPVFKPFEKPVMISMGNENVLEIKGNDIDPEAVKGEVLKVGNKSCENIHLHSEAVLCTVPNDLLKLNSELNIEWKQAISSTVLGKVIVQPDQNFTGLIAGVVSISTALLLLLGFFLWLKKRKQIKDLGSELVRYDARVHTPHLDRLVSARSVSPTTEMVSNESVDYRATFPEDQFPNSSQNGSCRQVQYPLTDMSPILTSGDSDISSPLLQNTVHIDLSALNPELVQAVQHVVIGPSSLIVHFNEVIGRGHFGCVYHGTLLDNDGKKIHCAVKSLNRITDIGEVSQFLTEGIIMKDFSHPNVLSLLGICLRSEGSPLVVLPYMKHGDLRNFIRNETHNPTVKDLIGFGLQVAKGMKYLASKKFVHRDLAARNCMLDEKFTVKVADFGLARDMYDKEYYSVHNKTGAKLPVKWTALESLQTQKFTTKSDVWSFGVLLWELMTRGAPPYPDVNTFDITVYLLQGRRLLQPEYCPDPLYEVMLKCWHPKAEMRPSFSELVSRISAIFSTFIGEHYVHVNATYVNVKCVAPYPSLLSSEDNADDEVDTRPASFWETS
Experimental: as §1

EGFR = target: T13, EGFR (Homo sapiens, UniProt P00533); test: Tyrosine kinase HTRF assay, EGFR; type: biochemical
T13 construct: purchased Invitrogen (Waltham, MA)
Experimental: as §1

Ron = target: T14, Ron (Homo sapiens, UniProt Q04912); test: Tyrosine kinase HTRF assay, Ron; type: biochemical
T14 construct: purchased Invitrogen (Waltham, MA)
T14 sequence (Q04912 25-1400): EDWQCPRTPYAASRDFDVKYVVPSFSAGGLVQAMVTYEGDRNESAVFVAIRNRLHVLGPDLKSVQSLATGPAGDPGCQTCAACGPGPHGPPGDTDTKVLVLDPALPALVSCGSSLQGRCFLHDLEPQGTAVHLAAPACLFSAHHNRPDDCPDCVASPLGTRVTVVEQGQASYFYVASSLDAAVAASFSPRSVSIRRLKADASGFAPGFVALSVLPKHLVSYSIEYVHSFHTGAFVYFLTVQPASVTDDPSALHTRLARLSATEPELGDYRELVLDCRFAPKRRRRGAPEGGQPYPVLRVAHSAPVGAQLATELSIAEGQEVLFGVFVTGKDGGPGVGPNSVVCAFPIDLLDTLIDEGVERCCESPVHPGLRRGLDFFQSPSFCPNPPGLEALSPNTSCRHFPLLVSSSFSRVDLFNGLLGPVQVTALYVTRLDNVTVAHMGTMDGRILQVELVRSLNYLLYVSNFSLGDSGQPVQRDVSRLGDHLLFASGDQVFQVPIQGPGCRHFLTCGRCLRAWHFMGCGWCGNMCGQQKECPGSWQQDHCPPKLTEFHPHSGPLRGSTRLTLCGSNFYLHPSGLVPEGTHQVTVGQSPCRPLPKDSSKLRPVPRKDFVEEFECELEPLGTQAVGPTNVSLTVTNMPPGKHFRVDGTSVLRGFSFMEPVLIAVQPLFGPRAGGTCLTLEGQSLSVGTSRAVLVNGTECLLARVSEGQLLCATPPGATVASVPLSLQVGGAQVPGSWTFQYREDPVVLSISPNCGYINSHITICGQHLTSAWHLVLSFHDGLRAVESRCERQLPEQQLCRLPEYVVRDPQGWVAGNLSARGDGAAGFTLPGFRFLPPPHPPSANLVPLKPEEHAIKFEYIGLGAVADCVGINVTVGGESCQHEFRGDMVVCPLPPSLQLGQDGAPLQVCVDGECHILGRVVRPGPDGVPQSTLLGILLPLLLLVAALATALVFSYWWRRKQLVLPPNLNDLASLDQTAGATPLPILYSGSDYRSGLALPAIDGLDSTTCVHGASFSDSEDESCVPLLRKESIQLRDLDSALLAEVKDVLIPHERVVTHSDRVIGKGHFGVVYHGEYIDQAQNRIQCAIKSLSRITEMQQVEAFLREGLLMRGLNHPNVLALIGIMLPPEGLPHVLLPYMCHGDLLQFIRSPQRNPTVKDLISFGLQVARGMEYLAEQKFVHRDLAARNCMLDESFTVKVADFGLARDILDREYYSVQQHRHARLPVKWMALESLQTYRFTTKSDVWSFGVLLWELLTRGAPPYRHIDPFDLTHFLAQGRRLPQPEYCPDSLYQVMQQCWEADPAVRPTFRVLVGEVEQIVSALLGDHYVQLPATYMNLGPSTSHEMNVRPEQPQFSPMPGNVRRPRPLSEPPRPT
Experimental: as §1

IC50 (Flt-4): 0.276 µM
IC50 (VEGFR-2): 0.527 µM
IC50 (c-Met Y1235D): 0.0542 µM
IC50 (c-Met H1094R): 0.0936 µM
AUC(0-inf) ([2]; iv, i.v. (1.5 mg/kg)): 2500 ng·h/mL
Cmax ([2]; iv, i.v. (1.5 mg/kg)): 552 ng/mL
half-life ([2]; iv, i.v. (1.5 mg/kg)): 3.2 h
clearance ([2]; iv, i.v. (1.5 mg/kg), CL = dose/AUCi.v.): 10 mL/min/kg
bioavailability ([2]; oral, p.o. (10 mg/kg) vs i.v. (1.5 mg/kg), read-out: F (oral bioavailability)): 69%
AUC(0-inf) ([2]; po, p.o. (10 mg/kg)): 11500 ng·h/mL
Cmax ([2]; po, p.o. (10 mg/kg)): 1760 ng/mL
Tmax ([2]; po, p.o. (10 mg/kg)): 4.1 h
half-life ([2]; po, p.o. (10 mg/kg)): 5.6 h
IC50 (c-kit): 0.00494 µM
fold less potent than against c-Met [3]: 108–207 fold
IC50 (c-Met D1228H): 0.0294 µM
IC50 (c-Met): 0.00254 ± 0.00049 µM
IC50 (MKN-45): 0.092 ± 0.006 µM
IC50 (MDA-MB-231): 3.94 ± 1.32 µM
IC50 (PDGFRα): 0.425 µM
IC50 (A549): 0.83 ± 0.36 µM
IC50 (PDGFRβ): 0.513 µM
IC50 (Flt-3): 0.00612 µM
IC50 (HT-29): 0.68 ± 0.09 µM
IC50 (c-Met Y1230H): 0.0458 µM
IC50 (c-Met M1250T): 0.0265 µM
IC50 (EGFR): > 10 µM
IC50 (Ron): 0.00383 µM
SMILES: O=C(Nc1ccc(Oc2ccnc(Cl)c2Cl)c(F)c1)c1nc(-c2ccc(F)c(Cl)c2)cs1 [Compound 51am, 4-(3-Chloro-4-fluorophenyl)-N-(4-((2,3-dichloropyridin-4-yl)oxy)-3-fluorophenyl)thiazole-2-carboxamide]
effect on c-Met phosphorylation (western blot) [1]: inhibited c-Met phosphorylation in a dose-dependent manner
percentage of apoptotic cells (MKN-45 cells; MKN-45, 0.4 μM): 14.74%
percentage of apoptotic cells (MKN-45 cells; MKN-45, 0.8 μM): 19.83%
percentage of apoptotic cells (MKN-45 cells; MKN-45, 1.2 μM): 38.54%
IC50 (FHC): 8.63 ± 1.52 µM
IC50 (HUVEC): 2.54 ± 0.46 µM
